Key:
[1] = tested on: hippocampal neurons; assay: Neurite outgrowth of hippocampal neurons transfected with dominant negative FGFR; type: cell-based, rat; conditions: 10 ng/ml GDNF or 3 μg/ml GDNFp1, 18 hours, dnFGFR vs empty vector
Protocol: For cocultures, L-cells were seeded in 8-well LabTek® Permanox Chamber slides at a density of 100.000 cells/well, except for transfection experiments where cells were seeded in 4-well LabTek® Permanox Chamber slides at a density of 200.000 cells/well. L-cells were grown for 24 hours in DMEM supplemented with 10% (v/v) FCS, 1% (v/v) glutamax, 100 U/ml penicillin, 100 μg/ml streptomycin, 2.5 μg/ml fungizone, and 567 μg/ml neomycin (G418), followed by washing twice in neurobasal medium with supplements before primary hippocampal neurons were seeded at a density of 7.000 cells/well in 8-well slides or 20.000 cells/well in 4-well slides.
Additionally, neurons were transiently transfected with a dominant negative version of the FGFR (dnFGFR), As an alternative to the use of a pharmacological FGFR inhibitor, The dnFGFR plasmid encodes an FGFR that lacks the kinase domain. This mutant receptor inhibits the function of wild type FGFR by engaging in dimers that lack kinase activity. Transfection with an empty vector served as control. Transfection was also done with wtFGFR in order to assess the effect of overexpressing the FGFR.
Transfections were performed with a Nucleofector™ device and a Rat Neuron Nucleofector™ kit (Amaxa Inc., Gaithersburg, Md., USA). This transfection method is based on electroporation in combination with a Nucleofector™ solution containing lipophilic agents. These agents form liposomes containing the plasmid DNA, which then enter the cells during electroporation. The method allows transfection of undividing cells such as neurons. 3 μg of the plasmid of interest was mixed with the Nucleofector™ solution and primary hippocampal neurons were resuspended in the mixture, electroporated in the Nucleofector™ device, and transferred to neurobasal medium with supplements and 5% (v/v) FCS. Cells were then incubated for 2 hours after which they were resuspended in medium without serum, counted, seeded and incubated for 6 hours before GDNF or GDNFp1 was added. Medium alone was added to control and cells were incubated for 18 hours.
All transient transfections in this study included co-transfection with a plasmid encoding EGFP, which allows the identification of transfected cells. To ensure that all EGFP-expressing cells also are transfected with the plasmid of interest, a ratio of […] between the EGFP-encoding plasmid and the plasmid of interest was used (i.e. 0.5 μg EGFP-encoding plasmid was used for each transfection).
Neurite outgrowth experiments were terminated after the stated time by fixating the cells. To visualize neurons and their neurites, immunostaining of GAP-43 was performed. This staining is specific for neurons. Transfected cells and their neurites should be visible without immunostaining due to the fluorescence emitted by GFP. […]

[2] = tested on: dopaminergic neurons; assay: Survival assay, dopaminergic neurons (6-OHDA); type: cell-based, Wistar rat; conditions: 100 μM 6-OHDA for two hours, further 24 hours with peptide
Protocol: Dopaminergic neurons were prepared from Wistar rat embryos at embryonic day 15 (Charles River, Sulzfeld, Germany or Møllegaard, Denmark). A pregnant rat was sacrificed and the uterus was taken out and kept on ice in Hank's balanced salt solution (HBSS; Gibco, BRL). The ventral part of the mesencephalon was dissected from the embryonic brains, homogenised on ice in Gey's balanced salt solution (GBSS; Gibco, BRL) supplemented with 5 g glucose/l (Sigma-Aldrich) and thereafter trypsinised. The dissociated cells were washed in the presence of DNAse 1 and soybean trypsin inhibitor (Sigma-Aldrich).
Dopaminergic neurons were seeded at a density of 150,000 cells/cm^2 in 24-well cell culture plates coated with poly-D-lysine as described above. The neurons were left to differentiate for six days without or with various concentrations of peptide, after which 6-OHDA was added at a concentration of 100 μM for two hours. A stock solution was prepared by dissolving 6-OHDAto a concentration of 10 mM in 0.1% (w/v) sodium metabisulphite in order to prevent oxidation. After two hours with 6-OHDA, the medium was changed to Neurobasal medium with supplements and peptide, and the cell cultures were further incubated for 24 hours, fixed and immunostained for tyrosine hydroxylase. 98 images for each experimental condition in each individual experiment were automatically video-recorded.

[3] = tested on: Ig1-2 modules of NCAM; assay: Surface plasmon resonance (SPR) binding analysis, NCAM Ig1-2; conditions: immobilized receptor protein, 25° C., PBS pH 7.4
Protocol: Analysis of binding was performed employing a BIAcoreX instrument (Biosensor AB, Uppsala, Sweden) at 25° C. using 10 mM pH 7.4 sodium phosphate containing 150 mM NaCl as running buffer (phosphate-buffered saline, PBS). The flow-rate was 5 μl/min. Data were analysed by non-linear curve-fitting using the manufacturer's software. The receptor proteins, e.g. NCAM Ig1-Ig2 and GFR proteins, were immobilized on a sensor chip CM5 using an amine coupling kit (Biosensor AB) as follows: the chip was activated by 20 μl activation solution; the protein was immobilized using 12 μl 20 μg/ml protein in 10 mM sodium phosphate buffer pH 6.0; the chip was blocked by 35 μl blocking solution. Various peptides at the indicated concentrations were injected into the sensor chip. The curve corresponding to the difference between binding to receptor and a blank chip was used for analysis.

“ETTYDKILKNLSRNR (listed as Homo sapiens) [G2, GDNF fragment]” was tested, and the “neurite outgrowth mediated by the substance after transfection with dominant negative FGFR, on NCAM-expressing fibroblasts” value ([1]; NCAM-expressing fibroblasts) was “decreases neurite outgrowth”, the “neurite outgrowth mediated by the substance after transfection with dominant negative FGFR, on control fibroblasts” value ([1]; control fibroblasts) was “decreases neurite outgrowth” and the “survival of dopaminergic neurons” value [2] was “increases the survival of dopaminergic neurons”. The “binding to the Ig1-2 modules of NCAM (SPR)” value [3] was “Binding”.
